# Measurements taken from patent US9637483B2, “Heterocyclic compound” (TAKEDA PHARMACEUTICAL COMPANY LIMITED, priority 2013, dated 2017).
# Key:
# Format in all cases: biochemical
# JAK2 = target: T1, JAK2 (Homo sapiens, UniProt O60674); assay: JAK2 enzyme inhibition test (LANCE method); conditions: 1 μM test compound; for inhibition at 1 µM: read-out: JAK2 enzyme inhibitory activity (%, 1 μM)
# T1 construct: purchased Invitrogen
# Summary of the method: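 TR-FRET (LANCE) read-out, ex 340/em 665 nm with 100 μs delay, after 1 hr room-temperature detection with europium anti-phosphotyrosine antibody and 20 mM EDTA. The preceding 1 hr kinase reaction combined JAK2, ULight-JAK1 substrate and ATP, added as 6 ng/mL, 300 nM and 45 μM solutions; enzyme-free wells defined 100% inhibition.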
# TYK2 = target: T2, TYK2 (Homo sapiens, UniProt P29597); assay: TYK2 enzyme inhibition test (LANCE method); conditions: 1 μM test compound; for inhibition at 1 µM: read-out: TYK2 enzyme inhibitory activity (%, 1 μM)
# T2 construct: purchased Invitrogen
# T2 sequence (P29597 whole entry): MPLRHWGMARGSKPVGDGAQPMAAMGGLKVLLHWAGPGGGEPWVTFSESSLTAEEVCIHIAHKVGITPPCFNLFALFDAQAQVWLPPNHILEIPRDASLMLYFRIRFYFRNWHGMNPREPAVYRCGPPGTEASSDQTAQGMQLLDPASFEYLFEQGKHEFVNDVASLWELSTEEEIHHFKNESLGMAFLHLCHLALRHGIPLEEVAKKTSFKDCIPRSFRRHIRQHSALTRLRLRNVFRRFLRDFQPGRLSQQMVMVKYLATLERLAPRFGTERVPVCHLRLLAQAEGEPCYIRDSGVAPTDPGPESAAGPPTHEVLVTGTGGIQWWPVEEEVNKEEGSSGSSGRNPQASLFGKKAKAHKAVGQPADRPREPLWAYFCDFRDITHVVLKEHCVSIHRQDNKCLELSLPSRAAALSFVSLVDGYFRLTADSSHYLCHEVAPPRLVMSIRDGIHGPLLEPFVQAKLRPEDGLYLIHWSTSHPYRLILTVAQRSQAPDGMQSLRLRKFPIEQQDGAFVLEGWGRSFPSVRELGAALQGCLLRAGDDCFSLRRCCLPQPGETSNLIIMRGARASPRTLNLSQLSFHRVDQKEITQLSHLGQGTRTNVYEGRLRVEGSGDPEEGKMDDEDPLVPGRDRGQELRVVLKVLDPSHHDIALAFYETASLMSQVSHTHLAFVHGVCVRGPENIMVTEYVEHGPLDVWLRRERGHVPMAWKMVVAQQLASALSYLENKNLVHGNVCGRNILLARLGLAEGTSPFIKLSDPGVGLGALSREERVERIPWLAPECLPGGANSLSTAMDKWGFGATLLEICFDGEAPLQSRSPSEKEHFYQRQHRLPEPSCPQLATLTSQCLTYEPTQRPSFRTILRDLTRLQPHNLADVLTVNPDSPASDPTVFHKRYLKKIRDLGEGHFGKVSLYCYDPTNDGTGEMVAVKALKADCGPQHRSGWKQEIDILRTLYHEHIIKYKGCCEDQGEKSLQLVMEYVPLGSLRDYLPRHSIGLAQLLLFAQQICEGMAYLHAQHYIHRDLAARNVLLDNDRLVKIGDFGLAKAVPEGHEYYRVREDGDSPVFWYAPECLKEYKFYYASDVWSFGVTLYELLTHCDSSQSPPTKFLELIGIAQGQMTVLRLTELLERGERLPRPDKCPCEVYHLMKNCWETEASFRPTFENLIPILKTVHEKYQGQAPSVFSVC
# Summary of the method: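 TR-FRET (LANCE) readout: after 1 h room-temperature kinase reaction, EDTA plus 4 nM Eu-labelled anti-phosphotyrosine antibody added, signal at 665 nm (340 nm excitation). Reaction combined TYK2, ULight-JAK1 substrate and ATP, prepared at 375 ng/mL, 300 nM and 30 μM before addition, in pH 7.5 HEPES/MgCl2 buffer; enzyme-free wells define full inhibition.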
# JAK1 = target: T3, JAK1 (Homo sapiens, UniProt P23458); assay: JAK1 enzyme inhibition test (LANCE method); conditions: 1 μM test compound; for inhibition at 1 µM: read-out: JAK1 enzyme inhibitory activity (%, 1 μM)
# T3 construct: purchased Invitrogen
# T3 sequence (P23458 whole entry): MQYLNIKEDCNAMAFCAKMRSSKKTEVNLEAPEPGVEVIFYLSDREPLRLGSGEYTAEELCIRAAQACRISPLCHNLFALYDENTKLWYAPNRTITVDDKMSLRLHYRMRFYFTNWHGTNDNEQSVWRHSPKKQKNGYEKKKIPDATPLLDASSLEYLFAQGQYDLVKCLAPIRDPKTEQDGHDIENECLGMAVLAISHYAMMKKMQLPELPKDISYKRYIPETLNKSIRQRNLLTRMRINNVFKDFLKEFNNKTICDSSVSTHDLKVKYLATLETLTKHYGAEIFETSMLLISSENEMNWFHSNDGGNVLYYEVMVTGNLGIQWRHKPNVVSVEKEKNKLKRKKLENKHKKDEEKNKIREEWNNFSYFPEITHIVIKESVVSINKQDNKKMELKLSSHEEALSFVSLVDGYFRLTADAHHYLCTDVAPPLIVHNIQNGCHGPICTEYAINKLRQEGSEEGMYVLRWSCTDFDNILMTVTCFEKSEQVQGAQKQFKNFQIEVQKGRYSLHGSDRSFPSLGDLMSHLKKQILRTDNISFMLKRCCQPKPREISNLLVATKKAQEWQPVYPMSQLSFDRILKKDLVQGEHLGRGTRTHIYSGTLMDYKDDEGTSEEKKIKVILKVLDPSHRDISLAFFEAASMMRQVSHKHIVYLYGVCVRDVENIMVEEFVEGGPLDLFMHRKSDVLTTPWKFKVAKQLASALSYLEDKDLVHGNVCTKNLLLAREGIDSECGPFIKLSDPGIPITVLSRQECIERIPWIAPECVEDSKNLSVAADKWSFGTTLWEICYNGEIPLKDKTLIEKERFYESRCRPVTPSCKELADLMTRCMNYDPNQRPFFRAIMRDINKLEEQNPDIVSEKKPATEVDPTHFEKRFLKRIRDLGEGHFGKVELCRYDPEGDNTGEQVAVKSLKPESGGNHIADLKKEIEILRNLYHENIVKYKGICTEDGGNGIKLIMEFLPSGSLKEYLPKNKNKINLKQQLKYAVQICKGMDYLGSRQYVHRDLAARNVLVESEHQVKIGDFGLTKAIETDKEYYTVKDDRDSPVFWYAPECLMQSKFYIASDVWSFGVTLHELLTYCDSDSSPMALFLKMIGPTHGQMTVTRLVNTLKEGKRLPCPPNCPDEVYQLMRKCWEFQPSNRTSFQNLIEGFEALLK
# Summary of the method: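 Inhibition expressed against no-enzyme wells (100% inhibition), from time-resolved fluorescence at 665 nm after Eu-anti-phosphotyrosine antibody/EDTA detection. Kinase reaction ran 1 h at room temperature, pH 7.5 HEPES buffer, ULight-JAK1 substrate and ATP diluted to 300 nM and 150 μM before addition.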
# JAK3 = target: T4, JAK3 (Homo sapiens, UniProt P52333); assay: JAK3 enzyme inhibition test (LANCE method); conditions: 1 μM test compound; for inhibition at 1 µM: read-out: JAK3 enzyme inhibitory activity (%, 1 μM)
# T4 construct: purchased Invitrogen
# T4 sequence (P52333 1-1124): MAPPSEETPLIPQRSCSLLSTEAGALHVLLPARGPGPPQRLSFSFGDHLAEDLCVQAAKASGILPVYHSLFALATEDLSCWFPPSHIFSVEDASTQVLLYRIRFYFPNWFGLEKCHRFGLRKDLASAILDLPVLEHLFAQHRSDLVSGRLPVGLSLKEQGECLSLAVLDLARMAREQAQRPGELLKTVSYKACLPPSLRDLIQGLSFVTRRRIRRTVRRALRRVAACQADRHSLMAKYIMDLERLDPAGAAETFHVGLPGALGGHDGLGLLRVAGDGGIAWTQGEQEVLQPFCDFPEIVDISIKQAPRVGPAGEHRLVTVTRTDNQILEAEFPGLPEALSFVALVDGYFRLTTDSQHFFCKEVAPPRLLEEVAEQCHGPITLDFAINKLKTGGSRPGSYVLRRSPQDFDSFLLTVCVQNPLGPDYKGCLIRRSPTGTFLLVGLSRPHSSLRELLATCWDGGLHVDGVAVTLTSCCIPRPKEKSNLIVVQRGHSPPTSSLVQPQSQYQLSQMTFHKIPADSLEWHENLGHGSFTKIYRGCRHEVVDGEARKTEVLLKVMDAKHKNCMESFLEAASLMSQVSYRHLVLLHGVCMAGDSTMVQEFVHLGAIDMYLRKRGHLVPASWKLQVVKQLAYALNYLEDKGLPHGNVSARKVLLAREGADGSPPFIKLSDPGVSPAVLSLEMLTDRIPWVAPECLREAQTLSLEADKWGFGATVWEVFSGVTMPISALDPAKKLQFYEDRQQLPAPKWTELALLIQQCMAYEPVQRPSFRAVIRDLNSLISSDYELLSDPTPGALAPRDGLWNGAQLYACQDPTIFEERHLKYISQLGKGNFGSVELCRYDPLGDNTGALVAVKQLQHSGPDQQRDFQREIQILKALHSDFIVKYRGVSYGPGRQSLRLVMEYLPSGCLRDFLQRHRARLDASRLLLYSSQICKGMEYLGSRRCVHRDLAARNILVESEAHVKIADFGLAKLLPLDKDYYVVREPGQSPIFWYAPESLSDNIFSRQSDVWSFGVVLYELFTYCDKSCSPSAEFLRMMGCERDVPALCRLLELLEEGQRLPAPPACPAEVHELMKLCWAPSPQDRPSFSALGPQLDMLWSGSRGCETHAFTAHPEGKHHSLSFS
# Summary of the method: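 TR-FRET (LANCE) read: 1 h room-temperature reaction, EDTA quench, Eu-anti-phosphotyrosine antibody, emission 665 nm after 340 nm excitation. Added solutions held 12 ng/mL JAK3, 300 nM ULight-JAK1 substrate and 15 μM ATP (pH 7.5 HEPES). Activity expressed against no-enzyme wells defined as full inhibition.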
# T1 sequence (O60674 whole entry): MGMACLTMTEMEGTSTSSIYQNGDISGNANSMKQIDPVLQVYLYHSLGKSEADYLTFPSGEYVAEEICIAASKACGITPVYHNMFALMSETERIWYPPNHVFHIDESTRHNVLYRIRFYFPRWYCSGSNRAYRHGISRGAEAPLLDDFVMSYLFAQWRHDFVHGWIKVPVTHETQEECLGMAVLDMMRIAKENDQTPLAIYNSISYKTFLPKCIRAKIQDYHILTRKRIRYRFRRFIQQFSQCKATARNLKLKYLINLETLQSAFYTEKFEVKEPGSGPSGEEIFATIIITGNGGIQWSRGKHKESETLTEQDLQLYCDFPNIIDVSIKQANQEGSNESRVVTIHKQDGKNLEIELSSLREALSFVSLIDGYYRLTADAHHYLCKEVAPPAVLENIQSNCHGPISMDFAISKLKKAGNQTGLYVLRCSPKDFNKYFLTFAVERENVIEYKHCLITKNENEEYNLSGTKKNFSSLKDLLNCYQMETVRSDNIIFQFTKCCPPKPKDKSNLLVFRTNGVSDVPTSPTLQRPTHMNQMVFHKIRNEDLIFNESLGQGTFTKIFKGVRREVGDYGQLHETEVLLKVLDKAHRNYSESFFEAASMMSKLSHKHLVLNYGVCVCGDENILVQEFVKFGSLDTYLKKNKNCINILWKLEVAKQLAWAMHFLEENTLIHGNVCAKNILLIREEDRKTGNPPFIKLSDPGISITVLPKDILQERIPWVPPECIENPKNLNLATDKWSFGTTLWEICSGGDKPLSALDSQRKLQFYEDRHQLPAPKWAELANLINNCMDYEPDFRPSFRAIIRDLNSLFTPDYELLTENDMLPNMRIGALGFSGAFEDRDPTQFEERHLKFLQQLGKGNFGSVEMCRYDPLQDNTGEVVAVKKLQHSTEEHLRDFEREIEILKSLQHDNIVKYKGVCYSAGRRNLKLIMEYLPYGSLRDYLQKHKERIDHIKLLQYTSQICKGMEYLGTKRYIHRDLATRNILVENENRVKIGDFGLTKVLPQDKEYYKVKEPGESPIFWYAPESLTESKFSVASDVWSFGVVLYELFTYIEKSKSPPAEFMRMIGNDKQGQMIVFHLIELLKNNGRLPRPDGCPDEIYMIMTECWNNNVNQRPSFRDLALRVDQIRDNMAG
inhibition at 1 µM (JAK2) [%],inhibition at 1 µM (TYK2) [%],inhibition at 1 µM (JAK1) [%],inhibition at 1 µM (JAK3) [%],"JAK2 enzyme inhibitory activity (%, 1 μM) (JAK2) [%]","TYK2 enzyme inhibitory activity (%, 1 μM) (TYK2; 1 µM) [%]","JAK1 enzyme inhibitory activity (%, 1 μM) (JAK1) [%]","JAK3 enzyme inhibitory activity (%, 1 μM) (JAK3) [%]","JAK2 enzyme inhibitory activity (%, 1 μM) (JAK2; 1 µM) [%]","TYK2 enzyme inhibitory activity (%, 1 μM) (TYK2) [%]","JAK3 enzyme inhibitory activity (%, 1 μM) (JAK3; 1 µM) [%]",SMILES
99,99,99,99,,,,,,,,"CC(C)[C@H](C)n1cc(-c2cc(C(C)(C)C#N)n(C)n2)c2[nH]nc(N)c2c1=O [Example 57, 2-(3-(3-amino-5-((2S)-3-methylbutan-2-yl)-4-oxo-4,5-dihydro-1H-pyrazolo[4,3-c]pyridin-7-yl)-1-methyl-1H-pyrazol-5-yl)-2-methylpropanenitrile]"
99,100,97,100,,,,,,,,CC(C)[C@H](C)n1cc(-c2cc(C3CCOCC3)n(C)n2)c2[nH]nc(N)c2c1=O [Example 58]
,,,,98,100,97,99,,,,"CC1CN(c2cc(-c3cn([C@@H](C)C(C)C)c(=O)c4c(N)n[nH]c34)nn2C)CCO1 (stereo partly drawn) [Example 59, 3-amino-5-((2S)-3-methylbutan-2-yl)-7-(1-methyl-5-(2-methylmorpholin-4-yl)-1H-pyrazol-3-yl)-1,5-dihydro-4H-pyrazolo[4,3-c]pyridin-4-one]"
,,,,98,99,96,99,,,,"CC1CN(c2cc(-c3cn([C@@H](C)C(C)C)c(=O)c4c(N)n[nH]c34)nn2C)CCO1 (stereo partly drawn) [Example 60, 3-amino-5-((2S)-3-methylbutan-2-yl)-7-(1-methyl-5-(2-methylmorpholin-4-yl)-1H-pyrazol-3-yl)-1,5-dihydro-4H-pyrazolo[4,3-c]pyridin-4-one]"
,,,,,,97,,99,99,100,"CC(C)[C@H](C)n1cc(-c2cc(N3CCN4CCCC4C3)n(C)n2)c2[nH]nc(N)c2c1=O (stereo partly drawn) [Example 61, 3-amino-7-(5-(hexahydropyrrolo[1,2-a]pyrazin-2 (H)-yl)-1-methyl-1H-pyrazol-3-yl)-5-((2S)-3-methylbutan-2-yl)-1,5-dihydro-4H-pyrazolo[4,3-c]pyridin-4-one]"
,,,,,,97,,99,99,99,"CC(C)[C@H](C)n1cc(-c2cc(N3CCN4CCCC4C3)n(C)n2)c2[nH]nc(N)c2c1=O (stereo partly drawn) [Example 62, 3-amino-7-(5-(hexahydropyrrolo[1,2-a]pyrazin-2 (H)-yl)-1-methyl-1H-pyrazol-3-yl)-5-((2S)-3-methylbutan-2-yl)-1,5-dihydro-4H-pyrazolo[4,3-c]pyridin-4-one]"
,,,,,99,96,,99,,100,"CC(C)[C@H](C)n1cc(-c2cc(N3CCC(C)(O)C3)n(C)n2)c2[nH]nc(N)c2c1=O (stereo partly drawn) [Example 63, 3-amino-7-(5-(3-hydroxy-3-methylpyrrolidin-1-yl)-1-methyl-1H-pyrazol-3-yl)-5-((2S)-3-methylbutan-2-yl)-1,5-dihydro-4H-pyrazolo[4,3-c]pyridin-4-one]"
,,,,,100,97,,99,,99,"CC(C)[C@H](C)n1cc(-c2cc(N3CCC(C)(O)C3)n(C)n2)c2[nH]nc(N)c2c1=O (stereo partly drawn) [Example 64, 3-amino-7-(5-(3-hydroxy-3-methylpyrrolidin-1-yl)-1-methyl-1H-pyrazol-3-yl)-5-((2S)-3-methylbutan-2-yl)-1,5-dihydro-4H-pyrazolo[4,3-c]pyridin-4-one]"
98,100,99,100,,,,,,,,"CNC(=O)c1cc(-c2cn(-c3c(F)cccc3F)c(=O)c3c(N)n[nH]c23)nn1C [Example 65, 3-(3-amino-5-(2,6-difluorophenyl)-4-oxo-4,5-dihydro-1H-pyrazolo[4,3-c]pyridin-7-yl)-N,1-dimethyl-1H-pyrazole-5-carboxamide]"
99,100,99,100,,,,,,,,"Cn1nc(-c2cn(-c3c(F)cccc3F)c(=O)c3c(N)n[nH]c23)cc1C(=O)N1CCOCC1 [Example 66, 3-amino-5-(2,6-difluorophenyl)-7-(1-methyl-5-(morpholin-4-ylcarbonyl)-1H-pyrazol-3-yl)-1,5-dihydro-4H-pyrazolo[4,3-c]pyridin-4-one]"
97,100,98,99,,,,,,,,"Cn1nc(-c2cn(-c3c(F)cccc3C#N)c(=O)c3c(N)n[nH]c23)cc1N1CCOCC1 [Example 67, 2-(3-amino-7-(1-methyl-5-(morpholin-4-yl)-1H-pyrazol-3-yl)-4-oxo-1,4-dihydro-5H-pyrazolo[4,3-c]pyridin-5-yl)-3-fluorobenzonitrile]"
97,99,99,99,,,,,,,,"Cn1nc(-c2cn(-c3c(F)cccc3C#N)c(=O)c3c(N)n[nH]c23)cc1C1=CCOCC1 [Example 68, 2-(3-amino-7-(5-(3,6-dihydro-2H-pyran-4-yl)-1-methyl-1H-pyrazol-3-yl)-4-oxo-1,4-dihydro-5H-pyrazolo[4,3-c]pyridin-5-yl)-3-fluorobenzonitrile]"
96,99,97,98,,,,,,,,"Cn1nc(-c2cn(-c3c(F)cccc3C#N)c(=O)c3c(N)n[nH]c23)cc1C1CCOCC1 [Example 69, 2-(3-amino-7-(1-methyl-5-(tetrahydro-2H-pyran-4-yl)-1H-pyrazol-3-yl)-4-oxo-1,4-dihydro-5H-pyrazolo[4,3-c]pyridin-5-yl)-3-fluorobenzonitrile]"
96,100,97,99,,,,,,,,"CN1CCN(c2cc(-c3cn(-c4c(F)cccc4C#N)c(=O)c4c(N)n[nH]c34)nn2C)CC1 [Example 70, 2-(3-amino-7-(1-methyl-5-(4-methylpiperazin-1-yl)-1H-pyrazol-3-yl)-4-oxo-1,4-dihydro-5H-pyrazolo[4,3-c]pyridin-5-yl)-3-fluorobenzonitrile]"
97,99,98,98,,,,,,,,"Cn1nc(-c2cn(-c3c(F)cccc3C#N)c(=O)c3c(N)n[nH]c23)cc1C(C)(C)O [Example 71, 2-(3-amino-7-(5-(2-hydroxypropan-2-yl)-1-methyl-1H-pyrazol-3-yl)-4-oxo-1,4-dihydro-5H-pyrazolo[4,3-c]pyridin-5-yl)-3-fluorobenzonitrile]"
